{"source": "patent US10258602B2", "about": "(Ocera Therapeutics, Inc., priority 2007, dated 2019)", "key": {"CYP2A6": {"target": "T1, CYP2A6 (Homo sapiens, UniProt P11509)", "T1 construct": "purchased BD Gentest, Becton-Dickinson (Supersomes); host or cells: insect cells", "T1 sequence (P11509 1-494)": "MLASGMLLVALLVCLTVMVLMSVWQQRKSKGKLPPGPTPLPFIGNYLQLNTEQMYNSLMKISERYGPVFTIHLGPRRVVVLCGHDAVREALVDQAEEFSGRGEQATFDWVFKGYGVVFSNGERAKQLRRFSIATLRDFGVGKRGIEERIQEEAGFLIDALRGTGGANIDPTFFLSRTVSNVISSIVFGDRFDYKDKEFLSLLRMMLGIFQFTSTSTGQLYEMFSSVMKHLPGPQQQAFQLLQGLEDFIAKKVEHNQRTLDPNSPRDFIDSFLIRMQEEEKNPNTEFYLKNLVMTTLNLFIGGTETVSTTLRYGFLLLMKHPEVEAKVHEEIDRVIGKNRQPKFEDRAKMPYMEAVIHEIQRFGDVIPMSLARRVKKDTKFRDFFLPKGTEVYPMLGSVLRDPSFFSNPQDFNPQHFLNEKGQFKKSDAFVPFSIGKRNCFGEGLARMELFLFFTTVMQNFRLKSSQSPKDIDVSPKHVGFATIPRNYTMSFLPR", "test": "Cytochrome P450 inhibition, CYP2A6", "assay_type": "in vitro ADME", "conditions": "read-out: IC50 2A6", "text": "K. Assay for Cytochrome P450 Inhibition\nCytochrome P450 enzymes are implicated in the phase I metabolism of drugs. The majority of drug-drug interactions are metabolism-based and, moreover, these interactions typically involve inhibition of cytochrome P450s. Six CYP450 enzymes (CYP1A2, CYP2C8, CYP2C9, CYP2C19, CYP2D6 and CYP3A4) appear to be commonly responsible for the metabolism of most drugs and the associated drug-drug interactions. Assays to determine the binding of compounds of the invention to the various metabolically important isoforms of cytochrome P450 metabolizing enzymes are commercially available, for example NoAb BioDiscoveries (Mississaugua, ON, Canada) and Absorption Systems (Exton, Pa., USA). As well, a number of appropriate methods have been described or reviewed in the literature. (White, R. E. Ann. Rev. Pharmacol. Toxicol. 2000, 40, 133-157; Li, A. P. Drug. Disc. Today 2001, 6, 357-366; Turpeinen, M.; Korhonen, L. E. Tolonen, A.; et al. Eur. J. Pharm. Sci, 2006, 29, 130-138.)\nThe key aspects of the experimental method were as follows: • 1. […] Assays monitored, via fluorescence detection, the formation of a fluorescent metabolite following incubation of the microsomes with a specific CYP substrate. • 3. Compounds of the present invention were tested in duplicate samples at eight test concentrations using 3-fold serial dilutions (concentration range of 0.0457 to 100 μM). • 4. For each CYP-450 enzyme, a specific inhibitor was tested in duplicate at eight concentrations as a positive control. • 5. The concentration of the inhibitor or test compound that inhibited metabolite formation by 50% (IC50) was calculated by non-linear regression analysis of the % inhibition vs. log concentration (M) curve."}, "[1]": {"test": "Plasma protein binding, human plasma (equilibrium dialysis)", "assay_type": "in vitro ADME", "conditions": "test concentration 5 μg/mL", "method_in_brief": "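Human plasma incubated with test article at several concentrations for 60 min at 37° C. Bound and unbound fractions separated by equilibrium dialysis; unbound concentration quantified by LC-MS or LC-MS-MS.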"}, "[2]": {"tested_on": "rat stomach fundus strips", "test": "tissue or blood", "conditions": "read-out: EC50 values for contractility", "experimental": "Fundus strips (approximately 0.4×1 cm) were cut from the stomach of adult male Wistar rats parallel to the circular muscle fibers. They were placed between two platinum ring electrodes, 1 cm apart (Radnoti, ADInstruments, USA) in 10 ml tissue baths containing Krebs solution bubbled with 5% CO2 in O2 and maintained at 37° C. Tissues were suspended under 1.5 g resting tension. Changes of tension were measured isometrically with force transducers and recorded with a PowerLab 8/30 data acquisition system (ADInstruments, USA). Tissues were allowed to equilibrate for 60 min during which time bath solutions were changed every 15 min.\nEFS was achieved by applying 0.5 ms pulses, 5 Hz frequency, at a maximally effective voltage of 70 V. EFS was applied for 30 sec at 3 min intervals for a 30 min initial period. This initial period was separated by a 5 min interval with wash out of the bath solution. Then, a second period of stimulation was started. […] Responses to the agents were measured and expressed as % of the mean of three or four pre-drug responses to EFS. All compounds were dissolved at 1 mM in distilled water or MeOH, as stock solutions."}, "[3]": {"target": "GHS-R1a receptor (human ghrelin receptor) (Homo sapiens, UniProt Q92847)", "sequence (Q92847 whole entry)": "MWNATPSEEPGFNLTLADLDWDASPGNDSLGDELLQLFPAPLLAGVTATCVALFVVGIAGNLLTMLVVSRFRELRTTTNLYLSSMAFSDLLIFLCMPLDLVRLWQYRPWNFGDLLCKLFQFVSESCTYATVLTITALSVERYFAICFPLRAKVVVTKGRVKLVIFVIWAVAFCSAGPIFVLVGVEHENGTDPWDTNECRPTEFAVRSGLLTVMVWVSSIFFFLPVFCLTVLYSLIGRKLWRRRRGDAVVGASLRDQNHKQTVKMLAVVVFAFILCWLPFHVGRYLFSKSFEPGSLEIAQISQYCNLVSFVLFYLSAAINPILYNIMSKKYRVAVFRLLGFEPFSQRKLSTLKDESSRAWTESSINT", "test": "Aequorin functional assay (ghrelin receptor), standard method B", "assay_type": "cell-based", "text": "B. Aequorin Functional Assay (Ghrelin Receptor)\nSee also U.S. patent application Ser. Nos. 11/149,512 and 11/149,731. (LePoul, E.; et al. J. Biomol. Screen. 2002, 7, 57-65; Bednarek, M. A.; et al. J. Med. Chem. 2000, 43, 4370-4376; Palucki, B. L.; et al. Bioorg. Med. Chem. Lett. 2001, 11, 1955-1957.) Functional activity at the gherlin receptor for representative compounds of the present invention is presented in the Examples."}, "[4]": {"test": "Plasma protein binding, rat plasma", "assay_type": "in vitro ADME", "conditions": "test concentration 5 μg/mL"}, "hGHS-R1a": {"target": "T2, hGHS-R1a (Homo sapiens, UniProt Q92847)", "T2 construct": "expressed in transfected cells", "T2 sequence (Q92847 whole entry)": "as above", "test": "Activation-desensitization profile, Ca2+ flux in HEK293 cells stably expressing hGHS-R1a", "assay_type": "cell-based", "conditions": "higher positive = less desensitization potential", "description": "M. Activation-Desensitization Profile\nIt is well-known that agonists of G-protein coupled receptors can induce desensitization or tachyphylaxis, thereby limiting the potential of agents acting at the receptor as therapeutics for chronic use.\n• 1. […] Agonist-induced Ca^+2 fluxes were measured after loading with Ca^+2 indicator Fluo-4-AM. • 3. […] Results"}, "Caco-2 cell layer": {"tested_on": "Caco-2 cell layer", "test": "Caco-2 permeability", "conditions": "for Papp A to B: Caco-2, apical to basolateral; for Papp A to B / Papp B to A: 10 μM, 60 min, 37° C.; for Papp B to A: Caco-2, basolateral to apical; for BtoA/AtoB: Caco-2 ratio of Papp B to A over A to B", "experimental": "L. Determination of Caco-2 Permeability\nFully differentiated cell monolayers can be used to assess the membrane transport properties of novel compounds.\nPermeability across the Caco-2 cell layer was determined by growing the cells on a membrane placed between two (donor and acceptor) chambers. […] Permeability in this direction represents intestinal absorption. Permeability may also be determined from the basolateral to the apical side of the Caco-2 cell. A higher apical to basolateral Papp, compared to the basolateral to apical Papp, is indicative of carrier-mediated transport.\nPermeability (10 μM) for compounds of the invention in the apical to basolateral and basolateral to apical direction were tested in duplicate. Samples will be collected from the donor and acceptor chambers at the beginning (0 min) and following 60 min of incubation at 37° C. and stored frozen at −70° C. until bioanalysis. Samples for each test compound generated from the Caco-2 permeability assay were further analyzed by LC-MS-MS. The permeability of [^3H]-mannitol and [^3H]-propranolol were determined in parallel as controls.\nThe permeability coefficient (Papp) of each compound and radiolabeled standard was determined using the following equation:\nwhere dQ/dT represents the permeability rate, Ci denotes the initial concentration in the donor compartment, and A represents the surface area of the filter. Ci is determined from the mean concentration of duplicate samples taken prior to addition to the donor compartment. Permeability rates were calculated by plotting the cumulative amount of compound measured in the acceptor compartment over time and determining the slope of the line by linear regression analysis. The duplicate and mean apical to basolateral and basolateral to apical Papp's were reported for each compound and standard."}}, "note": "pEC50, pIC50: −log10 of the molar value."}
{"smiles": "C[C@@H]1C(=O)N[C@H](Cc2ccc(O)cc2)C(=O)NCCCc2ccc(F)cc2OCCN[C@@H](C2CC2)C(=O)N1C", "note": "[Compound 809]", "values": [{"measurement": "pIC50", "setting": "CYP2A6", "value": "< 4.00"}]}
{"smiles": "CC(C)C[C@H]1NC(=O)[C@@H](C)N(C)C(=O)[C@H](C2CC2)NC[C@@H](C)Oc2ccccc2CC[C@H](C)NC1=O", "note": "[Compound 807]", "values": [{"measurement": "fraction unbound at 60 min, 5 μg/mL", "setting": "[1]", "value": 0.007}, {"measurement": "pEC50", "setting": "[2]", "value": 6.82}, {"measurement": "pIC50", "setting": "CYP2A6", "value": "< 4.00"}, {"measurement": "pEC50", "setting": "[3]", "value": "≥ 7.30"}, {"measurement": "fraction unbound at 60 min, 5 μg/mL", "setting": "[4]", "value": 0.16}, {"measurement": "Δ(activity-desensitization) (pEC50 − pDC50)", "setting": "hGHS-R1a", "value": 3.08}]}
{"smiles": "CC1NC(C2CC2)C(=O)N(C)C(C)C(=O)NC(Cc2ccc(O)cc2)C(=O)NCCCc2ccccc2OC1C", "note": "(stereo not drawn) [Compound 820]", "values": [{"measurement": "pIC50", "setting": "CYP2A6", "value": "< 4.00"}]}
{"smiles": "CC(C)C[C@H]1NC(=O)[C@@H](C)N(C)C(=O)[C@H](C2CC2)NCCOc2cc(F)ccc2CC[C@H](C)NC1=O", "note": "[Compound 822]", "values": [{"measurement": "pIC50", "setting": "CYP2A6", "value": "< 4.00"}]}
{"smiles": "CC(C)CC1NC(=O)C(C)N(C)C(=O)C(C2CCCCC2)NCC(C)OC2CCCCC2CCCNC1=O", "note": "(mixture of isomers) [Compound 828]", "values": [{"measurement": "pIC50", "setting": "CYP2A6", "value": "< 4.00"}]}
{"smiles": "CC1CNC(C2CC2)C(=O)N(C)C(C)C(=O)NC(Cc2ccc(O)cc2)C(=O)NCCCC2CCCCC2O1", "note": "(mixture of isomers) [Compound 826]", "values": [{"measurement": "Papp A to B", "setting": "Caco-2 cell layer", "value": 11.2, "unit": "cm/sec × 10^−6"}, {"measurement": "Papp B to A", "setting": "Caco-2 cell layer", "value": 46.9, "unit": "cm/sec × 10^−6"}, {"measurement": "BtoA/AtoB", "setting": "Caco-2 cell layer", "value": 4.18}, {"measurement": "pIC50", "setting": "CYP2A6", "value": "< 4.00"}, {"measurement": "Δ(activity-desensitization) (pEC50 − pDC50)", "setting": "hGHS-R1a", "value": 1.90}]}
{"smiles": "CC(C)CC1NC(=O)C(C)N(C)C(=O)C(C2CC2)NCC(C)OC2CCCCC2CCCNC1=O", "note": "(mixture of isomers) [Compound 825]", "values": [{"measurement": "Papp A to B", "setting": "Caco-2 cell layer", "value": 113, "unit": "cm/sec × 10^−6"}, {"measurement": "Papp B to A", "setting": "Caco-2 cell layer", "value": 123, "unit": "cm/sec × 10^−6"}, {"measurement": "BtoA/AtoB", "setting": "Caco-2 cell layer", "value": 1.08}, {"measurement": "pIC50", "setting": "CYP2A6", "value": "< 4.00"}]}
{"smiles": "C[C@@H]1C(=O)N[C@H](Cc2ccc(O)cc2)C(=O)NCCCc2cccc3c2O[C@H](CC3)CN[C@@H](C2CC2)C(=O)N1C", "note": "[Compound 803]", "values": [{"measurement": "Papp A to B", "setting": "Caco-2 cell layer", "value": 12.1, "unit": "cm/sec × 10^−6"}, {"measurement": "Papp B to A", "setting": "Caco-2 cell layer", "value": 67.3, "unit": "cm/sec × 10^−6"}, {"measurement": "BtoA/AtoB", "setting": "Caco-2 cell layer", "value": 5.59}, {"measurement": "pIC50", "setting": "CYP2A6", "value": "< 4.00"}]}
{"smiles": "CC(C)C[C@H]1NC(=O)[C@@H](C)N(C)C(=O)[C@H](C2CC2)NCCOc2cc(F)ccc2CCCNC1=O", "note": "[Compound 810]", "values": [{"measurement": "pIC50", "setting": "CYP2A6", "value": "< 4.00"}]}
